The values below come from paper PMC7437907, “Impact of pH and protein hydrophobicity on norovirus inactivation by heat-denatured lysozyme” (PLoS ONE, 2020).

Data set [1] concerns MNV-1. The experiment in a line: Plaque assay for MNV-1 infectivity after exposure to DL preparations at different pH. It is filed as cell-based, murine norovirus strain 1.
Protocol: The infectivity of MNV-1 was determined by a plaque assay, as described previously [9]. Briefly, RAW264.7 cells were seeded into 6-well plates (Falcon BD, Franklin Lakes, NJ) at approximately 6 log cells/mL in DMEM containing 5% (v/v) FBS, penicillin (100 U/mL), and streptomycin (100 μg/mL). The plates were incubated at 37°C under 5% CO2 for 18 h. Then, 500 μL/well of samples prepared as described below sections were added to the plates, and the plates were shaken at 20 r/min for 1 h. The inoculated sample was removed, and the wells overlaid with 2 mL of 1.5% (v/v) SeaPlaque agarose (Lonza Japan, Tokyo, Japan) in DMEM containing 5% (v/v) FBS. The plates were incubated at 37°C under 5% CO2 for 48 h. Then, 2 mL of 0.03% (v/v) neutral red solution (Sigma-Aldrich Japan, Tokyo, Japan) was added, and the plates incubated at 37°C under 5% CO2 for 1 h. Thus, visualized plaques were then counted. […] The samples were then diluted 10-fold in DMEM to stop the virus inactivation reaction and analyzed by the plaque assay, as described above.
Data set [2] concerns MNV-1. The experiment in a line: MNV-1 inactivation by heat-denatured Lzm peptides (plaque assay). To be noted: peptides at same molar concentration as 1.0% (w/v) lysozyme, or DL 1% pH 3.7; heat-denatured 100°C 40 min; MNV-1 approx. 6 log PFU/mL, 60 min, room temperature; mean, n = 3. Type of data set: cell-based, murine norovirus strain 1. Here is the method:
The infectivity of MNV-1 was determined by a plaque assay, as described previously. Briefly, RAW264.7 cells were seeded into 6-well plates (Falcon BD, Franklin Lakes, NJ) at approximately 6 log cells/mL in DMEM containing 5% (v/v) FBS, penicillin (100 U/mL), and streptomycin (100 μg/mL). The plates were incubated at 37°C under 5% CO2 for 18 h. Then, 500 μL/well of samples prepared as described below sections were added to the plates, and the plates were shaken at 20 r/min for 1 h. The inoculated sample was removed, and the wells overlaid with 2 mL of 1.5% (v/v) SeaPlaque agarose (Lonza Japan, Tokyo, Japan) in DMEM containing 5% (v/v) FBS. The plates were incubated at 37°C under 5% CO2 for 48 h. Then, 2 mL of 0.03% (v/v) neutral red solution (Sigma-Aldrich Japan, Tokyo, Japan) was added, and the plates incubated at 37°C under 5% CO2 for 1 h. Thus, visualized plaques were then counted. The synthesized peptides were dissolved in distilled water to the same molarity as 2.0% (w/v) lysozyme, 14,307 of molecular weight, and heated in an oil bath at 100°C for 40 min, then immediately cooled in ice. Next, 120 μL of MNV-1 solution at 6 log pfu/mL was mixed with 120 μL of the prepared heat-denatured peptides, and allowed to stand for 60 min at room temperature. The samples were immediately diluted 10-fold in DMEM and analyzed by the plaque assay, as described above.

The subject of another data set is interferon β (Ifnb) gene. The experiment in a line: Gene expression (qPCR) of RAW264.7 macrophages infected with DL-treated MNV-1: Ifnb. It is filed as cell-based. To be noted: MNV-1 exposed to 1.0% DL (pH 6.5 before denaturation) for 60 min, MOI 0.01, 24 h, fold-change vs mock by ΔΔCt, n = 3. The method, then:
(§1) RAW264.7 cell monolayers (1 × 10^7 cells/mL) in T25 cell flasks (Thermo Fisher Scientific K. K., Tokyo, Japan) were inoculated as described below.
(§2) Live MNV-1 (6 log PFU/mL) was used at a multiplicity of infection (MOI) of 0.01. For some experiments, MNV-1 (6 log PFU/mL) was inactivated by heating at 100°C for 40 min in an oil bath. The heat-treated MNV-1 was then used at MOI of 0.01 (infectivity as determined before heat inactivation). For another set of experiments, 100 μL of MNV-1 (6 log PFU/mL) was mixed with 100 μL of 2.0% of DL (adjusted at pH 6.5 before thermally-denaturation) and allowed to stand at room temperature for 60 min. The mixture was used at MOI of 0.01 (infectivity as before DL treatment).
(§3) The inoculated RAW264.7 cell monolayers were incubated at 37°C under 5% CO2 for 24 h. The cells were then detached by using a cell scraper (Thermo Fisher Scientific) and centrifuged at 300 × g for 5 min. […]
(§4) Total RNA was extracted from inoculated RAW264.7 macrophages using the RNeasy Mini kit (Qiagen, Hilden, Germany), according to the manufacturer’s instructions. […] The resulting cDNA was amplified by quantitative polymerase chain reaction (qPCR) to quantitate the expression levels of interferon β (Ifnb) and interleukin 6 (Il6) genes. […] Fold-changes in mRNA abundance were calculated by the ΔΔCt method, as previously described.
Background: Quantitative PCR measures a nucleic acid by following its amplification.

For a further data set, the system named is interleukin 6 (Il6) gene. Nature of the data set: Gene expression (qPCR) of RAW264.7 macrophages infected with DL-treated MNV-1: Il6. Type of data set: cell-based. The conditions noted are these: MNV-1 exposed to 1.0% DL (pH 6.5 before denaturation) for 60 min, MOI 0.01, 24 h, fold-change vs mock by ΔΔCt, n = 3. The method, then: as §1, §2, §3, §4
The nature of data set [3]: Surface hydrophobicity, protein stability and aggregation assay kit (PSA200K). It is filed as physicochemical. The conditions noted are these: 1% lysozyme solution, pH 4.5–8.5, DL denatured 100°C 40 min, 1X PSA solution, λEx 550 nm, λEm 610 nm, compared with native lysozyme at same pH, p < 0.01, n = 3. Here is the method:
Hydrophobicity, thiol group content, and circular dichroism (CD) spectra of the different DL preparations were analyzed. Hydrophobicity was measured by using protein stability and aggregation assay kit (PSA200K, Profoldin, Hudson, MA), according to the manufacturer’s instructions. Sample excitation was measured at 550 nm and emission at 610 nm, using a spectrofluorometer (SH-9000, Corona Electric Co., Ltd., Ibaraki, Japan). Thiol group content was determined in a reaction mixture containing 192 μL of deionized water, 20 mM Tris-HCl at pH 8.0, 2.8 μL of Ellman’s reagent [prepared by dissolving 4 mg of 5,5′-dithiobis-(2-nitrobenzoic acid) powder in 1 mL of Tris buffer at pH 7.0], and 200 μL of 1.0% (w/v) DL. After incubation at room temperature for 1 h in the dark, sample absorbance was measured at 412 nm by using a microplate reader (SH-1000 Lab, Corona Electric Co., Ltd.). CD spectra were acquired using a circular dichroism dispersometer (J-720, JASCO Corporation, Tokyo, Japan). For the analysis, DL preparation was diluted to 100 μg/mL in distilled water, and the spectra acquired in the range of 190 to 250 nm, with a scanning speed of 100 nm/min, a bandwidth of 1 nm, and integration frequency of 10.

In data set [4] the test system is MNV-1. To be noted: after exposure to DL for 1 h; cited from earlier work. The text has this: We have reported that thermally denatured lysozyme (DL) inactivates norovirus. […] Furthermore, DL inactivates norovirus in several foods and is also effective against the hepatitis A virus. However, the conditions for optimal DL norovirus-inactivating effects and the underlying mechanism remain unclear.

For data set [5] the following is noted: stated in discussion, no reference given; cited from earlier work. The source says:
Lysozyme is a positively charged protein with an isoelectric point of 11. We anticipated that in a high-pH solution (pH 6.5–8.5), the intermolecular forces would become stronger, thus, denaturing the protein structure upon heating. In other words, adjusting the pH to a high value would trigger the loosening of the protein structure during thermal denaturation. […] Of ...

For the substance “DL: thermally denatured egg white lysozyme, prepared at pH 3.7–8.5”, the “Infectivity of MNV-1 after exposure, trend with pH” value in the data set on MNV-1 [1] (0.1% and 0.5% DL final, preparations at different pH, exposure 60 min, n = 3) is given as “tended to decrease as the pH of DL preparations increased”. In addition, in the data set on MNV-1 [1] (1.0% DL final, DL preparations at pH 4.5–8.5, exposure 1 min, control distilled water, Dunnett's test p < 0.01, n = 3), the “Infectivity of MNV-1 after exposure, versus control” value is on record as “significantly lower than that of the control”. Also, the “Decrease in MNV-1 infectivity (log reduction)” value (shortened to “Decrease … (log reduction)”) with MNV-1 [2] stood at 0.9 log PFU/mL. The “Expression of the Ifnb gene” value in the data set on interferon β (Ifnb) gene is reported as “did not increase”. The “Expression of the Il6 gene” value with interleukin 6 (Il6) gene is recorded as “did not increase”. Also, the “Surface hydrophobicity (fluorescence intensity)” value in data set [3] was “significantly higher than that of native lysozyme at any pH”. For the same substance, the “Average expansion of MNV-1 particle size” value in the data set on MNV-1 [4] is recorded as 16.37 nm. Regarding “ITASVNCAKKIVSDGNGMNAWVAWRNRCKGTDVQAWIR [Lzm 88–125, synthetic peptide containing lysozyme residues 88–125]”, the “Decrease … (log reduction)” value in the data set with MNV-1 [2] was found to be 0.2 log PFU/mL. On the same count and under the same terms, the figure for “KVFGRCELAAAMKRHGLDNYRGYSLGNWVCAAKFE [Lzm 1–35, synthetic peptide containing lysozyme residues 1–35]” is 1.7 log PFU/mL. In the case of “Lysozyme: egg white lysozyme, single-chain polypeptide consisting of 129 amino acids”, in data set [5], the Isoelectric point is recorded as 11. On to “RCELAAAMKREGLDNYRGYSLGNWVCAAEFESNFN [Lzm R1, variant of Lzm 5–39, basic amino acids replaced with acidic amino acids]”, for which the “Decrease … (log reduction)” value with MNV-1 [2] is on record as “lost”. Still for that read-out and setting: the entry for “RCELAAAMKRHGLDNYRGYSLGNNVCAAKNESNNN [Lzm R2, variant of Lzm 5–39, aromatic amino acids replaced to reduce hydrophobicity]” is “lost”; for “RCELAAAMKRHGLDNYRGYSLGNWVCAAKFESNFN [Lzm 5–39, synthetic peptide of lysozyme residues 5–39]” it is 1.7 log PFU/mL; for “RCNLAAAMKRHGLNNYRGYSLGNWVCAAKFNSNFN [Lzm R3, variant of Lzm 5–39, all acidic amino acids replaced with uncharged amino acids]” it is 2.0 log PFU/mL.
